Values quoted from earlier work as cited in PubChem BioAssay AID1259409 (Chemical Carcinogenesis Research Information System (CCRIS), 2018).

System: rodent chemically induced tumor inhibition, incidence and multiplicity
Assay: CCRIS tumor inhibitor studies
Details: Route [Inhibitor]: ORAL, Species: RAT, Strain/Sex: SPRAGUE-DAWLEY/FEMALE

COc1ccc(C[C@H]2COC(=O)[C@@H]2Cc2ccc(O[C@@H]3O[C@H](CO)[C@@H](O)[C@H](O)[C@H]3O)c(OC)c2)cc1OC
tumour outcome (control, treated, inhibition, significance) (Carcinogen: 2-AMINO-1-METHYL-6-PHENYL-1H-IMIDAZO[4,5-B]PYRID INE, 105650-23-5, Dose [Inhibitor]: 0, 0.02% IN THE DIET FOR 8 WK BEGINNING 3 D POST LAST CARCINOGEN DOSE (STUDY DURATION: 48 WK), Target Tissue: Type of Lesion: MAMMARY GLAND: ADENOCARCINOMA, Dose [Carcinogen]: 100 MG/KG BW 1/WK FOR 8 WK BEGINNING AT 6 WK OF AGE, Promoter: NONE USED): 12/20 (60%), 10/19 (53%), 12%, not significant
tumour outcome (control, treated, inhibition, significance) (Carcinogen: 2-AMINO-1-METHYL-6-PHENYL-1H-IMIDAZO[4,5-B]PYRID INE, 105650-23-5, Dose [Inhibitor]: 0, 0.02% IN THE DIET FOR 8 WK BEGINNING 3 D POST LAST CARCINOGEN DOSE (STUDY DURATION: 48 WK), Target Tissue: Type of Lesion: MAMMARY GLAND: FIBROADENOMA, Dose [Carcinogen]: 100 MG/KG BW 1/WK FOR 8 WK BEGINNING AT 6 WK OF AGE, Promoter: NONE USED): 2/20 (10%), 2/19 (11%), -10%, not significant
tumour outcome (control, treated, inhibition, significance) (Carcinogen: 2-AMINO-1-METHYL-6-PHENYL-1H-IMIDAZO[4,5-B]PYRID INE, 105650-23-5, Dose [Inhibitor]: 0, 0.02% IN THE DIET FOR 8 WK BEGINNING 3 D PRIOR TO FIRST CARCINOGEN DOSE (STUDY DURATION: 48 WK), Target Tissue: Type of Lesion: MAMMARY GLAND: ADENOCARCINOMA, Dose [Carcinogen]: 100 MG/KG BW 1/WK FOR 8 WK CONCURRENT WITH INHIBITOR, Promoter: NONE USED): 12/20 (60%), 11/20 (55%), 8%, not significant
tumour outcome (control, treated, inhibition, significance) (Carcinogen: 2-AMINO-1-METHYL-6-PHENYL-1H-IMIDAZO[4,5-B]PYRID INE, 105650-23-5, Dose [Inhibitor]: 0, 0.02% IN THE DIET FOR 8 WK BEGINNING 3 D PRIOR TO FIRST CARCINOGEN DOSE (STUDY DURATION: 48 WK), Target Tissue: Type of Lesion: MAMMARY GLAND: FIBROADENOMA, Dose [Carcinogen]: 100 MG/KG BW 1/WK FOR 8 WK CONCURRENT WITH INHIBITOR, Promoter: NONE USED): 2/20 (10%), 3/20 (15%), -50%, not significant
tumour outcome (control, treated, inhibition, significance) (Carcinogen: 2-AMINO-1-METHYL-6-PHENYL-1H-IMIDAZO[4,5-B]PYRID INE, 105650-23-5, Dose [Inhibitor]: 0, 0.2% IN THE DIET FOR 8 WK BEGINNING 3 D POST LAST CARCINOGEN DOSE (STUDY DURATION: 48 WK), Target Tissue: Type of Lesion: MAMMARY GLAND: ADENOCARCINOMA, Dose [Carcinogen]: 100 MG/KG BW 1/WK FOR 8 WK BEGINNING AT 6 WK OF AGE, Promoter: NONE USED): 12/20 (60%), 11/20 (55%), 8%, not significant
tumour outcome (control, treated, inhibition, significance) (Carcinogen: 2-AMINO-1-METHYL-6-PHENYL-1H-IMIDAZO[4,5-B]PYRID INE, 105650-23-5, Dose [Inhibitor]: 0, 0.2% IN THE DIET FOR 8 WK BEGINNING 3 D POST LAST CARCINOGEN DOSE (STUDY DURATION: 48 WK), Target Tissue: Type of Lesion: MAMMARY GLAND: ADENOCARCINOMA, Dose [Carcinogen]: 100 MG/KG BW 1/WK FOR 8 WK CONCURRENT WITH INHIBITOR, Promoter: NONE USED): 12/20 (60%), 13/20 (65%), -8%, not significant
tumour outcome (control, treated, inhibition, significance) (Carcinogen: 2-AMINO-1-METHYL-6-PHENYL-1H-IMIDAZO[4,5-B]PYRID INE, 105650-23-5, Dose [Inhibitor]: 0, 0.2% IN THE DIET FOR 8 WK BEGINNING 3 D PRIOR TO FIRST CARCINOGEN DOSE (STUDY DURATION: 48 WK), Target Tissue: Type of Lesion: MAMMARY GLAND: FIBROADENOMA, Dose [Carcinogen]: 100 MG/KG BW 1/WK FOR 8 WK CONCURRENT WITH INHIBITOR, Promoter: NONE USED): 2/20 (10%), 4/20 (20%), -100%, not significant
tumour outcome (control, treated, inhibition, significance) (Carcinogen: 2-AMINO-1-METHYL-6-PHENYL-1H-IMIDAZO[4,5-B]PYRID INE, Dose [Inhibitor]: 0, 0.2% IN THE DIET FOR 8 WK BEGINNING 3 D POST LAST CARCINOGEN DOSE (STUDY DURATION: 48 WK), Target Tissue: Type of Lesion: MAMMARY GLAND: FIBROADENOMA, Dose [Carcinogen]: 100 MG/KG BW 1/WK FOR 8 WK BEGINNING AT 6 WK OF AGE, Promoter: NONE USED): 2/20 (10%), 2/20 (10%), 0%, not significant
tumour outcome (control, treated, inhibition, significance) (Carcinogen: 2-AMINO-1-METHYL-6-PHENYLIMIDAZO[4,5-B]PYRIDINE [105650-23-5], Dose [Inhibitor]: 0.02% IN DIET FOR 8 WK BEGINNING 3 D PRIOR TO FIRST CARCINOGEN DOSE (STUDY DURATION: 48 WK), Target Tissue: Type of Lesion: MAMMARY GLAND: CARCINOMA, Dose [Carcinogen]: 100 MG/KG BW 1X/WK FOR 8 WK (STUDY DURATION: 48 WK), Promoter: NONE): 12/20 (60%), 11/20 (55%), 8%, not significant
tumour outcome (control, treated, inhibition, significance) (Carcinogen: 2-AMINO-1-METHYL-6-PHENYLIMIDAZO[4,5-B]PYRIDINE [105650-23-5], Dose [Inhibitor]: 0.02% IN DIET FOR 8 WK BEGINNING 3 D PRIOR TO FIRST CARCINOGEN DOSE (STUDY DURATION: 48 WK), Target Tissue: Type of Lesion: MAMMARY GLAND: FIBROADENOMA, Dose [Carcinogen]: 100 MG/KG BW 1X/WK FOR 8 WK (STUDY DURATION: 48 WK), Promoter: NONE): 2/20 (10%), 3/20 (15%), -50%, not significant
tumour outcome (control, treated, inhibition, significance) (Carcinogen: 2-AMINO-1-METHYL-6-PHENYLIMIDAZO[4,5-B]PYRIDINE [105650-23-5], Dose [Inhibitor]: 0.02% IN DIET FOR 40 WK BEGINNING 3 D POST LAST CARCINOGEN DOSE (STUDY DURATION: 48 WK), Target Tissue: Type of Lesion: MAMMARY GLAND: CARCINOMA, Dose [Carcinogen]: 100 MG/KG BW 1X/WK FOR 8 WK (STUDY DURATION: 48 WK), Promoter: NONE): 12/20 (60%), 10/19 (53%), 12%, not significant
tumour outcome (control, treated, inhibition, significance) (Carcinogen: 2-AMINO-1-METHYL-6-PHENYLIMIDAZO[4,5-B]PYRIDINE [105650-23-5], Dose [Inhibitor]: 0.02% IN DIET FOR 40 WK BEGINNING 3 D POST LAST CARCINOGEN DOSE (STUDY DURATION: 48 WK), Target Tissue: Type of Lesion: MAMMARY GLAND: FIBROADENOMA, Dose [Carcinogen]: 100 MG/KG BW 1X FOR 8 WK (STUDY DURATION: 48 WK), Promoter: NONE): 2/20 (10%), 2/19 (11%), -10%, not significant
tumour outcome (control, treated, inhibition, significance) (Carcinogen: 2-AMINO-1-METHYL-6-PHENYLIMIDAZO[4,5-B]PYRIDINE [105650-23-5], Dose [Inhibitor]: 0.2% IN DIET FOR 8 WK BEGINNING 3 D PRIOR TO FIRST CARCINOGEN DOSE (STUDY DURATION: 48 WK), Target Tissue: Type of Lesion: MAMMARY GLAND: CARCINOMA, Dose [Carcinogen]: 100 MG/KG BW 1X/WK FOR 8 WK (STUDY DURATION: 48 WK), Promoter: NONE): 12/20 (60%), 13/20 (65%), -8%, not significant
tumour outcome (control, treated, inhibition, significance) (Carcinogen: 2-AMINO-1-METHYL-6-PHENYLIMIDAZO[4,5-B]PYRIDINE [105650-23-5], Dose [Inhibitor]: 0.2% IN DIET FOR 8 WK BEGINNING 3 D PRIOR TO FIRST CARCINOGEN DOSE (STUDY DURATION: 48 WK), Target Tissue: Type of Lesion: MAMMARY GLAND: FIBROADENOMA, Dose [Carcinogen]: 100 MG/KG BW 1X/WK FOR 8 WK (STUDY DURATION: 48 WK), Promoter: NONE): 2/20 (10%), 4/20 (20%), -100%, not significant
tumour outcome (control, treated, inhibition, significance) (Carcinogen: 2-AMINO-1-METHYL-6-PHENYLIMIDAZO[4,5-B]PYRIDINE [105650-23-5], Dose [Inhibitor]: 0.2% IN DIET FOR 40 WK BEGINNING 3 D POST LAST CARCINOGEN DOSE (STUDY DURATION: 48 WK), Target Tissue: Type of Lesion: MAMMARY GLAND: CARCINOMA, Dose [Carcinogen]: 100 MG/KG BW 1X FOR 8 WK (STUDY DURATION: 48 WK), Promoter: NONE): 12/20 (60%), 11/20 (55%), 8%, not significant
tumour outcome (control, treated, inhibition, significance) (Carcinogen: 2-AMINO-1-METHYL-6-PHENYLIMIDAZO[4,5-B]PYRIDINE [105650-23-5], Dose [Inhibitor]: 0.2% IN DIET FOR 40 WK BEGINNING 3 D POST LAST CARCINOGEN DOSE (STUDY DURATION: 48 WK), Target Tissue: Type of Lesion: MAMMARY GLAND: FIBROADENOMA, Dose [Carcinogen]: 100 MG/KG BW 1X FOR 8 WK (STUDY DURATION: 48 WK), Promoter: NONE): 2/20 (10%), 2/20 (10%), 0%, not significant
